Experimental data published in the supplement of paper PMC11451515.

System: NOMO1
Experiment: cell viability relative to DMSO control; higher = less cytotoxic
Settings: 48 h
Procedure, shortened: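 Library compounds in DMSO were pin-dosed in an 11-point threefold series (47 μM to 0.79 nM) onto leukemia cells in 1536-well plates (5 μl). Plates held 500 cells/well of NOMO1 or SEM or 1000 cells/well of P12-Ichikawa, each adapted for at least four passages in each medium. Luminescence was read with CellTiter-Glo One after 48 h at 37°C. Viability means the per-plate percentage relative to DMSO wells, using cell-free wells as background.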

[1] = HPLM + 10% dialyzed FBS, 0.000781 µM
[2] = HPLM + 10% dialyzed FBS, 0.00234 µM
[3] = HPLM + 10% dialyzed FBS, 0.00702 µM
[4] = HPLM + 10% dialyzed FBS, 0.0211 µM
[5] = HPLM + 10% dialyzed FBS, 0.0632 µM
[6] = HPLM + 10% dialyzed FBS, 0.19 µM
[7] = HPLM + 10% dialyzed FBS, 0.569 µM
[8] = HPLM + 10% dialyzed FBS, 1.71 µM
[9] = HPLM + 10% dialyzed FBS, 5.12 µM
[10] = HPLM + 10% dialyzed FBS, 15.4 µM
[11] = HPLM + 10% dialyzed FBS, 46.1 µM
[12] = RPMI 5 mM glucose + 10% FBS, 0.000781 µM
[13] = RPMI 5 mM glucose + 10% FBS, 0.00234 µM
[14] = RPMI 5 mM glucose + 10% FBS, 0.00702 µM
[15] = RPMI 5 mM glucose + 10% FBS, 0.0211 µM
[16] = RPMI 5 mM glucose + 10% FBS, 0.0632 µM
[17] = RPMI 5 mM glucose + 10% FBS, 0.19 µM
[18] = RPMI 5 mM glucose + 10% FBS, 0.569 µM
[19] = RPMI 5 mM glucose + 10% FBS, 1.71 µM
[20] = RPMI 5 mM glucose + 10% FBS, 5.12 µM
[21] = RPMI 5 mM glucose + 10% FBS, 15.4 µM
[22] = RPMI 5 mM glucose + 10% FBS, 46.1 µM
[23] = RPMI 5 mM glucose + 10% dialyzed FBS, 0.000781 µM
[24] = RPMI 5 mM glucose + 10% dialyzed FBS, 0.00234 µM
[25] = RPMI 5 mM glucose + 10% dialyzed FBS, 0.00702 µM
[26] = RPMI 5 mM glucose + 10% dialyzed FBS, 0.0211 µM
[27] = RPMI 5 mM glucose + 10% dialyzed FBS, 0.0632 µM
[28] = RPMI 5 mM glucose + 10% dialyzed FBS, 0.19 µM
[29] = RPMI 5 mM glucose + 10% dialyzed FBS, 0.569 µM
[30] = RPMI 5 mM glucose + 10% dialyzed FBS, 1.71 µM
[31] = RPMI 5 mM glucose + 10% dialyzed FBS, 5.12 µM
[32] = RPMI 5 mM glucose + 10% dialyzed FBS, 15.4 µM
[33] = RPMI 5 mM glucose + 10% dialyzed FBS, 46.1 µM

Compound	cell viability [1]	cell viability [2]	cell viability [3]	cell viability [4]	cell viability [5]	cell viability [6]	cell viability [7]	cell viability [8]	cell viability [9]	cell viability [10]	cell viability [11]	cell viability [12]	cell viability [13]	cell viability [14]	cell viability [15]	cell viability [16]	cell viability [17]	cell viability [18]	cell viability [19]	cell viability [20]	cell viability [21]	cell viability [22]	cell viability [23]	cell viability [24]	cell viability [25]	cell viability [26]	cell viability [27]	cell viability [28]	cell viability [29]	cell viability [30]	cell viability [31]	cell viability [32]	cell viability [33]
OC[C@H]1OC(OC2=CC3=C(C(=C2)O)C(=O)\C(=C/O3)C4=CC=C(O)C=C4)[C@H](O)[C@@H](O)[C@@H]1O (stereo partly drawn)	94%	86.6%	79.6%	92.8%	89.9%	89.2%	72%	61.9%	88.9%	72%	74.2%	78.9%	92.5%	85.9%	77.8%	92%	90.7%	87.9%	84.7%	84.1%	86.3%	72%	88.5%	73.9%	78.6%	78.5%	80.8%	73.4%	80.4%	82.8%	76.7%	77.8%	66.7%
Cn1cnc([N+](=O)[O-])c1Sc1ncnc2nc[nH]c12	79.8%	79.6%	107%	99.1%	109%	93.9%	114%	89.9%	6.49%	6.93%	7.54%	79.6%	87.5%	91.3%	96.6%	85.1%	95.6%	82.8%	73.1%	57.4%	6.27%	5.14%	88.9%	96.7%	93.3%	90%	98.6%	92.2%	90%	77.9%	48.6%	6.5%	6.03%
CCOC(=O)[C@@H](N)CCC(=O)N[C@@H](CSCc1ccccc1)C(=O)N[C@@H](C(=O)OCC)c1ccccc1																							128%	116%	123%	130%	133%	136%	121%	133%	137%	139%	98.9%
CO[C@@H]1[C@@H](O)[C@H](O)[C@@H](n2c3c(Cl)cccc3c3c4c(c5c6cccc(Cl)c6[nH]c5c32)C(=O)NC4=O)O[C@H]1CO	103%	116%	106%	103%	105%	107%	89.6%	21.6%	30.5%	25.7%	18.3%	93.3%	91.3%	106%	105%	86.7%	86.4%	91.7%	16.7%	20.3%	19.3%	16.4%	84.7%	103%	89.9%	98.5%	90.8%	99.9%	87.2%	20.7%	21.3%	22.6%	19.7%
COc1cc2c(Nc3ccc(Cl)c(Cl)c3F)ncnc2cc1OC[C@@H]1C[C@@H]2CN(C)C[C@@H]2C1	97.3%	99%	106%	104%	128%	127%	93.3%	101%	96.6%	45.6%	6.66%	93.7%	104%	115%	106%	103%	115%	110%	109%	111%	97.8%	6.22%	93.4%	116%	111%	112%	112%	104%	107%	105%	111%	92.1%	4.94%
O=C1CCCC(=O)C1C(=O)c1ccc(C(F)(F)F)cc1[N+](=O)[O-]	138%	110%	105%	107%	103%	106%	111%	118%	113%	93.6%	54.3%	102%	105%	99.2%	99.9%	104%	98.4%	103%	99.4%	98.4%	99.4%	92.8%	103%	108%	105%	90.1%	92%	111%	105%	113%	96.7%	95.3%	92.6%
O=C(NCC1CCOCC1)c1cnc(Nc2ccc(Cl)cc2Cl)nc1C(F)(F)F	101%	121%	121%	114%	126%	117%	122%	114%	131%	141%	127%	96.5%	112%	116%	121%	116%	117%	117%	126%	127%	131%	124%	109%	129%	116%	122%	131%	121%	122%	116%	120%	134%	131%
N#CC[C@H](C1CCCC1)n1cc(-c2ncnc3[nH]ccc23)cn1	117%	106%	103%	91.3%	105%	107%	85.1%	85.8%	61.4%	21.2%	15.7%	94.3%	84.2%	101%	78.9%	82.7%	79.1%	87.1%	78.1%	91.3%	43%	14.8%	97.1%	102%	93.2%	66%	108%	93.8%	88.7%	89.9%	79.9%	61.2%	41.2%
CN1CCC(CC1)=C2C3=C(C=CC=C3)\C=C/C4=C2C=CC=C4	98.6%	118%	113%	130%	133%	141%	147%	133%	121%	124%	93.4%																						
Nc1ccc([S+](=O)([O-])Nc2ncccn2)cc1	115%	121%	130%	126%	136%	127%	129%	138%	142%	129%	120%																						
Oc1c(Cl)cc(Cl)c2cccnc12	102%	113%	115%	93.6%	97.4%	92.6%	113%	91.4%	96.2%	111%	81.6%	91.7%	69.2%	105%	94.3%	92.6%	98.4%	116%	90.6%	84.8%	91.6%	62.6%	93.1%	90.8%	108%	97.7%	103%	94.3%	121%	101%	101%	91.7%	56.5%
CC(C)Cn1cnc2c(N)nc3ccccc3c21	120%	124%	120%	116%	118%	121%	117%	112%	94.5%	102%	89.4%	98.9%	110%	116%	109%	114%	103%	108%	103%	108%	95.3%	105%	112%	107%	102%	128%	109%	110%	115%	103%	96%	98.8%	100%
C1CN\2C[C@@H](\N=C2S1)C3=CC=CC=C3	101%	98.4%	103%	96.9%	104%	114%	102%	94.8%	91.3%	97.7%	60.3%	87.9%	88.6%	90.1%	90.2%	104%	88.5%	89.5%	90.8%	95.8%	91%	103%	87.6%	88.8%	85.3%	90.5%	93.3%	88.5%	86.8%	99.9%	84%	93%	91.7%
CCOC(=O)O[C@]1(C(=O)OCCl)CC[C@H]2[C@@H]3CCC4=CC(=O)C=C[C@]4(C)[C@H]3[C@@H](O)C[C@@]21C	101%	95.9%	103%	105%	103%	108%	110%	99.3%	95.3%	84.3%	82%	98.4%	88.2%	96.2%	84.2%	82.2%	94.6%	85.7%	87.5%	87.1%	89.3%	95%	88.1%	95.1%	93.2%	87.4%	91%	100%	88.6%	98.2%	75.8%	80.2%	93.4%
O=C1N\C=N/C2=C1C=N[NH]2	89.6%	88.4%	96.1%	97%	97.5%	86.8%	97.1%	103%	101%	67.1%	30%	77.9%	87.3%	83%	95.4%	94.9%	81.7%	86.5%	93%	94.3%	91.5%	81%	71.6%	78.3%	69.5%	84.8%	70.8%	91.3%	83.2%	88.6%	89.1%	81.2%	71.9%
CC(C)(C)C1=CC(=C(NC(=O)C/2=C/NC3=C(C=CC=C3)C2=O)C=C1O)C(C)(C)C												120%	108%	118%	128%	136%	124%	121%	116%	114%	111%	103%											
Cc1ccc(-c2cc(C(F)(F)F)nn2-c2ccc([S+](N)(=O)[O-])cc2)cc1												115%	122%	110%	126%	126%	114%	115%	112%	112%	128%	103%	121%	119%	121%	118%	107%	110%	117%	121%	104%	109%	92.7%
COc1cc(OC)c(C(=O)CCCN2CCCC2)c(OC)c1												132%	125%	122%	127%	127%	116%	120%	108%	119%	98.4%	106%											
